The source of these data is ChEMBL document CHEMBL3124777, “Synthesis and biological evaluation of thiazoline derivatives as new antimicrobial and anticancer agents” (Eur J Med Chem, 2014).

For orientation: MIC means the lowest concentration that inhibits growth of the organism. A lower MIC goes with inhibition by little substance. A word on the IC50: it is the concentration needed to halve the response being measured. The low end stands for greater potency, the high end for weaker potency.

≈ marks a conversion by molar mass, not a printed value. Calls of active or inactive are those of the source. The calls are words filed in the database; no cut-off is given here.

One experiment relates to C6. Nature of the experiment: Cytotoxicity against rat C6 cells assessed as cell viability at 6 ug/ml after 24 hrs by MTT assay relative to control. Particulars: C6, 24 h, read-out: Activity. Format: functional. For orientation: Tetrazolium assays rely on reduction of a dye to a coloured formazan, in cell work by metabolically active cells.
As to `Cc1nnc(SCC(=O)N/N=c2/scc(-c3ccc(F)cc3)n2-c2ccccc2)s1`, the viability at 6 µg/mL is 74.3%.
The same measure, in the same setting: the result for `COc1ccc(-c2cs/c(=N/NC(=O)CSc3nnc(C)s3)n2-c2ccccc2)cc1` reads 57.9%.

The test system of a further experiment is Aspergillus ochraceus. Nature of the experiment: Antimicrobial activity against Aspergillus ochraceus NRRL 3174 after 48 to 72 hrs by microbroth dilution method. Format: functional.
Conditions: not given
In general terms: Dilution methods test growth across graded concentrations, often in twofold steps.
For the compound `Cc1nnc(SCC(=O)N/N=c2/scc(-c3ccc(F)cc3)n2-c2ccccc2)s1`, the MIC worked out at 250 µg/mL (≈ 546 µM).
`COc1ccc(-c2cs/c(=N/NC(=O)CSc3nnc(C)s3)n2-c2ccccc2)cc1` gave an MIC of 250 µg/mL (≈ 532 µM).

In a further experiment the test system is Pseudomonas aeruginosa. Nature of the experiment: Antimicrobial activity against Pseudomonas aeruginosa […] after 18 to 24 hrs by microbroth dilution method. Format: functional.
Conditions: not given
Turning to `Cc1nnc(SCC(=O)N/N=c2/scc(-c3ccc(F)cc3)n2-c2ccccc2)s1`, the MIC stood at 250 µg/mL (≈ 546 µM).
Still for that read-out and setting: the result for `COc1ccc(-c2cs/c(=N/NC(=O)CSc3nnc(C)s3)n2-c2ccccc2)cc1` reads 250 µg/mL (≈ 532 µM).

In a further experiment the test system is C6. Nature of the experiment: Cytotoxicity against rat C6 cells assessed as cell viability at 12 ug/ml after 24 hrs by MTT assay relative to control. Format: functional. Conditions: C6, 24 h, read-out: Activity.
With `Cc1nnc(SCC(=O)N/N=c2/scc(-c3ccc(F)cc3)n2-c2ccccc2)s1`, the viability at 12 µg/mL came out at 73.7%.
Same read-out and setting: the result for `COc1ccc(-c2cs/c(=N/NC(=O)CSc3nnc(C)s3)n2-c2ccccc2)cc1` reads 53.6%.

A further experiment has as its system Aspergillus parasiticus. Nature of the experiment: Antimicrobial activity against Aspergillus parasiticus NRRL 465 after 48 to 72 hrs by microbroth dilution method.
Conditions: not given
It is filed as functional.
In the case of `Cc1nnc(SCC(=O)N/N=c2/scc(-c3ccc(F)cc3)n2-c2ccccc2)s1`, the MIC worked out at 250 µg/mL (≈ 546 µM).
Still for that read-out and setting: the result for `COc1ccc(-c2cs/c(=N/NC(=O)CSc3nnc(C)s3)n2-c2ccccc2)cc1` reads 250 µg/mL (≈ 532 µM).

The subject of another experiment is Trichoderma harzianum. Nature of the experiment: Antimicrobial activity against Trichoderma harzianum NRRL 20565 after 48 to 72 hrs by microbroth dilution method. It is filed as functional.
Conditions: not given
Compound `Cc1nnc(SCC(=O)N/N=c2/scc(-c3ccc(F)cc3)n2-c2ccccc2)s1` registered an MIC of 125 µg/mL (≈ 273 µM).
`COc1ccc(-c2cs/c(=N/NC(=O)CSc3nnc(C)s3)n2-c2ccccc2)cc1` returned an MIC of 125 µg/mL (≈ 266 µM).

The next experiment concerns C6. Nature of the experiment: Cytotoxicity against rat C6 cells assessed as cell viability at 100 ug/ml after 24 hrs by MTT assay relative to control. It is filed as functional. Conditions: C6, 24 h, read-out: Activity.
Consider `Cc1nnc(SCC(=O)N/N=c2/scc(-c3ccc(F)cc3)n2-c2ccccc2)s1`, for which the viability at 100 µg/mL came to 34.9%.
Same read-out and setting: the result for `COc1ccc(-c2cs/c(=N/NC(=O)CSc3nnc(C)s3)n2-c2ccccc2)cc1` reads 25.9%.

A further experiment deals with C6. Nature of the experiment: Cytotoxicity against rat C6 cells assessed as cell viability at 200 ug/ml after 24 hrs by MTT assay relative to control. Particulars: C6, 24 h, read-out: Activity. It is filed as functional.
Turning to `Cc1nnc(SCC(=O)N/N=c2/scc(-c3ccc(F)cc3)n2-c2ccccc2)s1`, the viability at 200 µg/mL is 26.5%.
The same measure, in the same setting: with `COc1ccc(-c2cs/c(=N/NC(=O)CSc3nnc(C)s3)n2-c2ccccc2)cc1` the figure was 22.2%.

The test system of the next experiment is C6. Nature of the experiment: Cytotoxicity against rat C6 cells after 24 hrs by MTT assay. It is filed as functional, cell-based. Particulars: C6, 24 h.
In turn, `Cc1nnc(SCC(=O)N/N=c2/scc(-c3ccc(F)cc3)n2-c2ccccc2)s1` came in with an IC50 of 27.3 µg/mL (≈ 59.7 µM).
Same read-out and setting: the result for `COc1ccc(-c2cs/c(=N/NC(=O)CSc3nnc(C)s3)n2-c2ccccc2)cc1` reads 18.7 µg/mL (≈ 39.8 µM).

The subject of the next experiment is Listeria monocytogenes. Nature of the experiment: Antimicrobial activity against Listeria monocytogenes ATCC 7644 after 18 to 24 hrs by microbroth dilution method. It is filed as functional.
Conditions: not given
On to `Cc1nnc(SCC(=O)N/N=c2/scc(-c3ccc(F)cc3)n2-c2ccccc2)s1`, for which the MIC worked out at 250 µg/mL (≈ 546 µM).
Still for that read-out and setting: the result for `COc1ccc(-c2cs/c(=N/NC(=O)CSc3nnc(C)s3)n2-c2ccccc2)cc1` reads 250 µg/mL (≈ 532 µM).

The test system of the next experiment is Fusarium solani. Nature of the experiment: Antimicrobial activity against Fusarium solani NRRL 13414 after 48 to 72 hrs by microbroth dilution method. Format: functional.
Conditions: not given
For `Cc1nnc(SCC(=O)N/N=c2/scc(-c3ccc(F)cc3)n2-c2ccccc2)s1`, the MIC amounted to 250 µg/mL (≈ 546 µM).
The same measure, in the same setting: the result for `COc1ccc(-c2cs/c(=N/NC(=O)CSc3nnc(C)s3)n2-c2ccccc2)cc1` reads 250 µg/mL (≈ 532 µM).

The next experiment concerns C6. Nature of the experiment: Cytotoxicity against rat C6 cells assessed as cell viability at 50 ug/ml after 24 hrs by MTT assay relative to control. It is filed as functional. Conditions: C6, 24 h, read-out: Activity.
In the case of `Cc1nnc(SCC(=O)N/N=c2/scc(-c3ccc(F)cc3)n2-c2ccccc2)s1`, the viability at 50 µg/mL came out at 37.4%.
Same read-out and setting: with `COc1ccc(-c2cs/c(=N/NC(=O)CSc3nnc(C)s3)n2-c2ccccc2)cc1` the figure was 31.5%.

For another experiment, the system named is Penicillium chrysogenum. Nature of the experiment: Antimicrobial activity against Penicillium chrysogenum NRRL 1951 after 48 to 72 hrs by microbroth dilution method. Format: functional.
Conditions: not given
`Cc1nnc(SCC(=O)N/N=c2/scc(-c3ccc(F)cc3)n2-c2ccccc2)s1` came in with an MIC of 250 µg/mL (≈ 546 µM).
On the same count and under the same terms, the result for `COc1ccc(-c2cs/c(=N/NC(=O)CSc3nnc(C)s3)n2-c2ccccc2)cc1` reads 250 µg/mL (≈ 532 µM).

Another experiment relates to C6. Nature of the experiment: Inhibition of DNA synthesis in rat C6 cells assessed as BrdU incorporation after 24 hrs by ELISA. Format: functional, cell-based.
Conditions: not given
A general note: Incorporation of labelled thymidine or its analogues reports DNA synthesis.
Take `Cc1nnc(SCC(=O)N/N=c2/scc(-c3ccc(F)cc3)n2-c2ccccc2)s1`: the inhibition result is “Dose-dependent effect”.
Still for that read-out and setting: with `COc1ccc(-c2cs/c(=N/NC(=O)CSc3nnc(C)s3)n2-c2ccccc2)cc1` the entry was “Dose-dependent effect”.

For another experiment, the system named is Escherichia coli. Nature of the experiment: Antimicrobial activity against Escherichia coli ATCC 25922 after 18 to 24 hrs by microbroth dilution method. It is filed as functional.
Conditions: not given
Compound `Cc1nnc(SCC(=O)N/N=c2/scc(-c3ccc(F)cc3)n2-c2ccccc2)s1` showed a minimal inhibitory concentration (MIC) of 250 µg/mL (≈ 546 µM).
The compound `COc1ccc(-c2cs/c(=N/NC(=O)CSc3nnc(C)s3)n2-c2ccccc2)cc1` showed an MIC of 250 µg/mL (≈ 532 µM).

The next experiment deals with C6. Nature of the experiment: Cytotoxicity against rat C6 cells assessed as cell viability at 25 ug/ml after 24 hrs by MTT assay relative to control. Conditions: C6, 24 h, read-out: Activity. It is filed as functional.
As for `Cc1nnc(SCC(=O)N/N=c2/scc(-c3ccc(F)cc3)n2-c2ccccc2)s1`, the viability at 25 µg/mL is 50.1%.
Same read-out and setting: with `COc1ccc(-c2cs/c(=N/NC(=O)CSc3nnc(C)s3)n2-c2ccccc2)cc1` the figure was 42.6%.

The next experiment relates to Candida albicans. Nature of the experiment: Antimicrobial activity against Candida albicans ATCC 22019 after 18 to 24 hrs by microbroth dilution method. Format: functional.
Conditions: not given
For the compound `Cc1nnc(SCC(=O)N/N=c2/scc(-c3ccc(F)cc3)n2-c2ccccc2)s1`, the MIC worked out at 250 µg/mL (≈ 546 µM).
Same read-out and setting: with `COc1ccc(-c2cs/c(=N/NC(=O)CSc3nnc(C)s3)n2-c2ccccc2)cc1` the figure was 250 µg/mL (≈ 532 µM).

The next experiment concerns Bacillus subtilis. Nature of the experiment: Antimicrobial activity against Bacillus subtilis NRS-744 after 18 to 24 hrs by microbroth dilution method. It is filed as functional.
Conditions: not given
Turning to `Cc1nnc(SCC(=O)N/N=c2/scc(-c3ccc(F)cc3)n2-c2ccccc2)s1`, the MIC stood at 250 µg/mL (≈ 546 µM).
Same read-out and setting: with `COc1ccc(-c2cs/c(=N/NC(=O)CSc3nnc(C)s3)n2-c2ccccc2)cc1` the figure was 250 µg/mL (≈ 532 µM).

A further experiment has as its system Fusarium verticillioides. Nature of the experiment: Antimicrobial activity against Fusarium moniliforme NRRL 1866 after 48 to 72 hrs by microbroth dilution method. It is filed as functional.
Conditions: not given
For the compound `Cc1nnc(SCC(=O)N/N=c2/scc(-c3ccc(F)cc3)n2-c2ccccc2)s1`, 250 µg/mL (≈ 546 µM) was the least that counted as inhibitory (MIC).
Same read-out and setting: the result for `COc1ccc(-c2cs/c(=N/NC(=O)CSc3nnc(C)s3)n2-c2ccccc2)cc1` reads 250 µg/mL (≈ 532 µM).

Another experiment deals with C6. Nature of the experiment: Inhibition of DNA synthesis in rat C6 cells assessed as BrdU incorporation at IC50 after 24 hrs by ELISA. It is filed as functional, cell-based.
Conditions: not given
Take `Cc1nnc(SCC(=O)N/N=c2/scc(-c3ccc(F)cc3)n2-c2ccccc2)s1`: the inhibition result was “Active”.
Same read-out and setting: the result for `COc1ccc(-c2cs/c(=N/NC(=O)CSc3nnc(C)s3)n2-c2ccccc2)cc1` reads “Active”.

Another experiment concerns Staphylococcus aureus. Nature of the experiment: Antimicrobial activity against Staphylococcus aureus NRRL B-767 after 18 to 24 hrs by microbroth dilution method.
Conditions: not given
Format: functional.
In the case of `Cc1nnc(SCC(=O)N/N=c2/scc(-c3ccc(F)cc3)n2-c2ccccc2)s1`, inhibition of growth (MIC) required 250 µg/mL (≈ 546 µM).
Still for that read-out and setting: the result for `COc1ccc(-c2cs/c(=N/NC(=O)CSc3nnc(C)s3)n2-c2ccccc2)cc1` reads 250 µg/mL (≈ 532 µM).

The next experiment deals with NIH3T3. Nature of the experiment: Cytotoxicity against mouse NIH/3T3 cells after 24 hrs by MTT assay. Format: cell-based. Particulars: NIH3T3, 24 h.
`Cc1nnc(SCC(=O)N/N=c2/scc(-c3ccc(F)cc3)n2-c2ccccc2)s1` returned a half-inhibitory concentration (IC50) of 383 µg/mL (≈ 838 µM).
Same read-out and setting: with `COc1ccc(-c2cs/c(=N/NC(=O)CSc3nnc(C)s3)n2-c2ccccc2)cc1` the figure was 300 µg/mL (≈ 639 µM).

The test system of the next experiment is Fusarium culmorum. Nature of the experiment: Antimicrobial activity against wild type Fusarium culmorum after 48 to 72 hrs by microbroth dilution method. It is filed as functional.
Conditions: not given
Consider `Cc1nnc(SCC(=O)N/N=c2/scc(-c3ccc(F)cc3)n2-c2ccccc2)s1`, for which the MIC came out at 250 µg/mL (≈ 546 µM).
On the same count and under the same terms, the result for `COc1ccc(-c2cs/c(=N/NC(=O)CSc3nnc(C)s3)n2-c2ccccc2)cc1` reads 250 µg/mL (≈ 532 µM).

The test system of a further experiment is Micrococcus luteus. Nature of the experiment: Antimicrobial activity against Micrococcus luteus NRLL B-4375 after 18 to 24 hrs by microbroth dilution method. Format: functional.
Conditions: not given
`Cc1nnc(SCC(=O)N/N=c2/scc(-c3ccc(F)cc3)n2-c2ccccc2)s1` displayed an MIC of 250 µg/mL (≈ 546 µM).
`COc1ccc(-c2cs/c(=N/NC(=O)CSc3nnc(C)s3)n2-c2ccccc2)cc1` had an MIC of 250 µg/mL (≈ 532 µM).
